Bounds are passed on as bounds.

In one data set the target is Human immunodeficiency virus type 1 reverse transcriptase (Human immunodeficiency virus 1, UniProt Q72547). The data set is described as follows: Inhibition of wild type HIV-1 reverse transcriptase assessed as reduction in biotin-dUTP incorporation in cDNA preincubated with compound for 1 hr in presence of biotin-labeled dNTPs by ELISA.
Conditions: not given
On the technique in general: An ELISA detects its analyte on a solid surface through an enzyme-linked reagent.
On to `Cc1cc(/C=C/C#N)cc(C)c1Oc1nc(Nc2ccc(N3CCN(S(C)(=O)=O)CC3)c(F)c2)ncc1-c1ccc(N)nc1`, for which the IC50 was 0.27 µM.
On the same count and under the same terms, for `Cc1cc(/C=C/C#N)cc(C)c1Oc1nc(Nc2ccc(N3CCS(=O)(=O)CC3)c(F)c2)ncc1-c1cnc(F)nc1` the value was 0.35 µM; for `Cc1cc(/C=C/C#N)cc(C)c1Oc1nc(Nc2ccc(N3CCN(S(C)(=O)=O)CC3)c(C#N)c2)ncc1-c1cncnc1`, 0.29 µM.

Tested on in the next data set: not listed separately
The data set is described as follows: Selectivity index, ratio of CC50 for cytotoxicity against human MT4 cells assessed as reduction in cell viability to EC50 for antiviral activity against human MT4 cells assessed as protection against virus-induced cytopathic effect. Type of data set: toxicity, cell-based. The note with it: read-out: Ratio CC50/EC50. (Cytopathic effects are the visible damage that an infection or toxin causes in cultured cells.)
With `Cc1cc(/C=C/C#N)cc(C)c1Oc1nc(Nc2ccc(N3CCN(S(C)(=O)=O)CC3)c(F)c2)ncc1-c1ccc(N)nc1`, the selectivity ratio came to 13000.
In the case of `Cc1cc(/C=C/C#N)cc(C)c1Oc1nc(Nc2ccc(N3CCS(=O)(=O)CC3)c(F)c2)ncc1-c1cnc(F)nc1`, the selectivity ratio is 2270.
As to `Cc1cc(/C=C/C#N)cc(C)c1Oc1nc(Nc2ccc(N3CCN(S(C)(=O)=O)CC3)c(C#N)c2)ncc1-c1cncnc1`, the selectivity ratio is over 24200.

For a further data set, the system named is Human immunodeficiency virus 1. In words: Antiviral activity against NNRTI-resistant HIV-1 harboring L100I mutant infected in human MT4 cells assessed as protection against virus-induced cytopathic effect incubated for 5 days by MTT assay. Type of data set: functional, organism-based. The conditions noted are these: Human immunodeficiency virus 1, MT4, 120 h.
Turning to `Cc1cc(/C=C/C#N)cc(C)c1Oc1nc(Nc2ccc(N3CCN(S(C)(=O)=O)CC3)c(F)c2)ncc1-c1ccc(N)nc1`, the half-maximal effective concentration (EC50) was 0.043 µM.
Same read-out and setting: for `Cc1cc(/C=C/C#N)cc(C)c1Oc1nc(Nc2ccc(N3CCS(=O)(=O)CC3)c(F)c2)ncc1-c1cnc(F)nc1` the value was 0.051 µM.
With `Cc1cc(/C=C/C#N)cc(C)c1Oc1nc(Nc2ccc(N3CCN(S(C)(=O)=O)CC3)c(C#N)c2)ncc1-c1cncnc1`, the EC50 was 0.039 µM.

The test system of a further data set is Human immunodeficiency virus 1. In words: Antiviral activity against NNRTI-resistant HIV-1 harboring Y181C mutant infected in human MT4 cells assessed as protection against virus-induced cytopathic effect incubated for 5 days by MTT assay. Type of data set: functional, organism-based. The conditions noted are these: Human immunodeficiency virus 1, MT4, 120 h.
For `Cc1cc(/C=C/C#N)cc(C)c1Oc1nc(Nc2ccc(N3CCN(S(C)(=O)=O)CC3)c(F)c2)ncc1-c1ccc(N)nc1`, the EC50 worked out at 0.18 µM.
Still for that read-out and setting: for `Cc1cc(/C=C/C#N)cc(C)c1Oc1nc(Nc2ccc(N3CCS(=O)(=O)CC3)c(F)c2)ncc1-c1cnc(F)nc1` the value was 0.12 µM.
As for `Cc1cc(/C=C/C#N)cc(C)c1Oc1nc(Nc2ccc(N3CCN(S(C)(=O)=O)CC3)c(C#N)c2)ncc1-c1cncnc1`, the EC50 is 0.099 µM.

For the next data set, the system named is Human immunodeficiency virus 1. In words: Antiviral activity against NNRTI-resistant HIV-1 harboring Y188L mutant infected in human MT4 cells assessed as protection against virus-induced cytopathic effect incubated for 5 days by MTT assay. It is filed as functional, organism-based. The note with it: Human immunodeficiency virus 1, MT4, 120 h.
Consider `Cc1cc(/C=C/C#N)cc(C)c1Oc1nc(Nc2ccc(N3CCN(S(C)(=O)=O)CC3)c(F)c2)ncc1-c1ccc(N)nc1`, for which the EC50 was 0.7 µM.
Regarding `Cc1cc(/C=C/C#N)cc(C)c1Oc1nc(Nc2ccc(N3CCS(=O)(=O)CC3)c(F)c2)ncc1-c1cnc(F)nc1`, the EC50 turned out to be 6.5 µM.
With `Cc1cc(/C=C/C#N)cc(C)c1Oc1nc(Nc2ccc(N3CCN(S(C)(=O)=O)CC3)c(C#N)c2)ncc1-c1cncnc1`, the EC50 is 0.89 µM.

A further data set relates to Human immunodeficiency virus 1. In words: Antiviral activity against wild type HIV-1 IIIB infected in human MT4 cells assessed as protection against virus-induced cytopathic effect incubated for 5 days by MTT assay. It is filed as functional, organism-based. The conditions noted are these: Human immunodeficiency virus 1, IIIB, MT4, 120 h.
`Cc1cc(/C=C/C#N)cc(C)c1Oc1nc(Nc2ccc(N3CCN(S(C)(=O)=O)CC3)c(F)c2)ncc1-c1ccc(N)nc1`: the EC50 was 0.0058 µM.
Consider `Cc1cc(/C=C/C#N)cc(C)c1Oc1nc(Nc2ccc(N3CCS(=O)(=O)CC3)c(F)c2)ncc1-c1cnc(F)nc1`, for which the EC50 came to 0.013 µM.
Still for that read-out and setting: for `Cc1cc(/C=C/C#N)cc(C)c1Oc1nc(Nc2ccc(N3CCN(S(C)(=O)=O)CC3)c(C#N)c2)ncc1-c1cncnc1` the value was 0.0085 µM.

Tested on in another data set: not listed separately
In words: Cytotoxicity against human MT4 cells assessed as reduction in cell viability incubated for 5 days by MTT assay. Type of data set: toxicity, cell-based. The conditions noted are these: time 5 day. In general terms: Tetrazolium dyes change colour on reduction, which living cells bring about.
Turning to `Cc1cc(/C=C/C#N)cc(C)c1Oc1nc(Nc2ccc(N3CCN(S(C)(=O)=O)CC3)c(F)c2)ncc1-c1ccc(N)nc1`, the CC50 at 120 h came to 75.6 µM.
Same read-out and setting: the figure for `Cc1cc(/C=C/C#N)cc(C)c1Oc1nc(Nc2ccc(N3CCS(=O)(=O)CC3)c(F)c2)ncc1-c1cnc(F)nc1` is 28.8 µM; for `Cc1cc(/C=C/C#N)cc(C)c1Oc1nc(Nc2ccc(N3CCN(S(C)(=O)=O)CC3)c(C#N)c2)ncc1-c1cncnc1` it is over 206 µM.

Another data set relates to Human immunodeficiency virus 1. The data set is described as follows: Antiviral activity against NNRTI-resistant HIV-1 harboring K103N mutant infected in human MT4 cells assessed as protection against virus-induced cytopathic effect incubated for 5 days by MTT assay. It is filed as functional, organism-based. The conditions noted are these: Human immunodeficiency virus 1, MT4, 120 h.
For `Cc1cc(/C=C/C#N)cc(C)c1Oc1nc(Nc2ccc(N3CCN(S(C)(=O)=O)CC3)c(F)c2)ncc1-c1ccc(N)nc1`, the concentration for a half-maximal effect (EC50) was 0.0066 µM.
`Cc1cc(/C=C/C#N)cc(C)c1Oc1nc(Nc2ccc(N3CCS(=O)(=O)CC3)c(F)c2)ncc1-c1cnc(F)nc1`: the EC50 is 0.013 µM.
Still for that read-out and setting: the figure for `Cc1cc(/C=C/C#N)cc(C)c1Oc1nc(Nc2ccc(N3CCN(S(C)(=O)=O)CC3)c(C#N)c2)ncc1-c1cncnc1` is 0.013 µM.

The test system of the next data set is Human immunodeficiency virus 1. The data set is described as follows: Antiviral activity against NNRTI-resistant HIV-1 harboring F227L/V106A double mutant infected in human MT4 cells assessed as protection against virus-induced cytopathic effect incubated for 5 days by MTT assay. The conditions noted are these: Human immunodeficiency virus 1, MT4, 120 h. Type of data set: functional, organism-based.
Take `Cc1cc(/C=C/C#N)cc(C)c1Oc1nc(Nc2ccc(N3CCN(S(C)(=O)=O)CC3)c(F)c2)ncc1-c1ccc(N)nc1`: the EC50 was found to be 0.18 µM.
On to `Cc1cc(/C=C/C#N)cc(C)c1Oc1nc(Nc2ccc(N3CCS(=O)(=O)CC3)c(F)c2)ncc1-c1cnc(F)nc1`, for which the EC50 worked out at 0.21 µM.
Regarding `Cc1cc(/C=C/C#N)cc(C)c1Oc1nc(Nc2ccc(N3CCN(S(C)(=O)=O)CC3)c(C#N)c2)ncc1-c1cncnc1`, the EC50 stood at 0.19 µM.

For a further data set, the system named is Human immunodeficiency virus 1. The data set is described as follows: Antiviral activity against NNRTI-resistant HIV-1 harboring RES056 mutant infected in human MT4 cells assessed as protection against virus-induced cytopathic effect incubated for 5 days by MTT assay. Type of data set: functional, organism-based. The conditions noted are these: Human immunodeficiency virus 1, MT4, 120 h.
`Cc1cc(/C=C/C#N)cc(C)c1Oc1nc(Nc2ccc(N3CCN(S(C)(=O)=O)CC3)c(F)c2)ncc1-c1ccc(N)nc1`: the EC50 was 0.1 µM.
Same read-out and setting: for `Cc1cc(/C=C/C#N)cc(C)c1Oc1nc(Nc2ccc(N3CCS(=O)(=O)CC3)c(F)c2)ncc1-c1cnc(F)nc1` the value was 1.59 µM; for `Cc1cc(/C=C/C#N)cc(C)c1Oc1nc(Nc2ccc(N3CCN(S(C)(=O)=O)CC3)c(C#N)c2)ncc1-c1cncnc1`, 0.77 µM.

A further data set has as its system Human immunodeficiency virus 1. In words: Antiviral activity against NNRTI-resistant HIV-1 harboring E138K mutant infected in human MT4 cells assessed as protection against virus-induced cytopathic effect incubated for 5 days by MTT assay. The conditions noted are these: Human immunodeficiency virus 1, MT4, 120 h. It is filed as functional, organism-based.
Take `Cc1cc(/C=C/C#N)cc(C)c1Oc1nc(Nc2ccc(N3CCN(S(C)(=O)=O)CC3)c(F)c2)ncc1-c1ccc(N)nc1`: the EC50 is 0.0298 µM.
Still for that read-out and setting: the figure for `Cc1cc(/C=C/C#N)cc(C)c1Oc1nc(Nc2ccc(N3CCS(=O)(=O)CC3)c(F)c2)ncc1-c1cnc(F)nc1` is 0.055 µM; for `Cc1cc(/C=C/C#N)cc(C)c1Oc1nc(Nc2ccc(N3CCN(S(C)(=O)=O)CC3)c(C#N)c2)ncc1-c1cncnc1` it is 0.049 µM.

One may read the IC50 as the concentration that inhibits the measured activity by half. Usually EC50 stands for the concentration needed to bring the measured effect to its halfway point. Broadly, the CC50 is the concentration that lowers cell viability or growth by half.
